Among the data in patent publication US20250144220A1, “CONJUGATE FOR PREVENTING AND TREATING VIRAL INFECTIONS AND USE THEREOF” (priority 2021, published 2025) are EC50 values, retold here.

Usually EC50 stands for the concentration at which the effect is half-maximal.

Assay in all cases: microbe, parasite or virus in culture
Assay type in all cases: cell-based, influenza virus H1N1

Assay [1] deals with VX-787-resistant A/PR/8/34 (H1N1).
Assay [2] deals with Baloxavir-resistant A/PR/8/34 (H1N1).
The test system of assay [3] is Oseltamivir-resistant A/Weiss/43 (H1N1).

Structures are written as SMILES. Where two headings read alike, the source gives them in different places. A value given as a limit tells only on which side of the number the result lay.

As to `O=C1c2c(O)c(=O)ccn2N([C@@H]2c3ccccc3SCc3c2ccc(F)c3F)[C@@H]2COCCN12` [Baloxavir, baloxivir], the concentration for a half-maximal effect (EC50) in assay [1] (Influenza A virus, MDCK, 120 h) is 0.58 nM; in assay [2] (Influenza A virus, MDCK, 120 h), 95 nM.

With `CCC(CC)O[C@@H]1C=C(C(=O)O)C[C@H](N)[C@H]1NC(C)=O` [Oseltamivir acid], the EC50 was 1060 nM in assay [1] (Influenza A virus, MDCK, 120 h); 2380 nM in assay [2] (Influenza A virus, MDCK, 120 h); above 100000 nM in assay [3] (Influenza A virus, H1N1, MDCK, 120 h).

In the case of `CC(=O)N[C@H]1[C@H]([C@H](O)[C@H](O)CO)OC(C(=O)O)=C[C@@H]1N=C(N)N` [Zanamivir, zanamivir, reference compound], the EC50 in assay [1] (read-out: EC50) is 167 nM; in assay [2] (read-out: EC50), 1390 nM; in assay [3] (read-out: EC50) it was 24.4 nM.
